Holding throughout (format): in vivo
The test system of test [1] is microtubule detyrosination in keratinocytes. Nature of the test: GluTub immunofluorescence of detyrosinated microtubules in zebrafish caudal fin keratinocytes. Here is the method:
The stock solution was divided into 20-30 μl aliquots and stored at −20 °C until use (maximal 6 months). Immediately prior to use, paclitaxel was diluted in Ringer's solution and added to dechorionated larval zebrafish. The larval fish were placed individually or in small groups into wells of a 12-well plate containing the treatment solutions. The control group was 0.05% DMSO. Plates were incubated at 28.5 °C and protected from light. Treatment lengths are indicated in the Drawings, Description of the Drawings, and Examples where appropriate. […] EMD534085, Eg5 inhibitor (MedChemExpress, Cat. No. HY-15000) was diluted in 100% DMSO to make a 10 mM stock solution and stored at −20 °C. […] The solutions were exchanged every 48 hr.
Larval fish were transferred into […] glass vials and fixed in 4% paraformaldehyde (PFA)/1× Phosphate-buffered saline (PBS) for 1.5 hr at room temperature, with gentle rocking. Following a 5-minute incubation in 1×PBS+0.1% Tween-20 (PBST), zebrafish were permeabilized in 1×PBS+0.1% Triton X-100 for 10-30 min. Larval fish were transferred into 2 ml reaction tubes and incubated in blocking buffer (1×PBST+5% BSA) for 30 min at room temperature, with rocking. Larval fish were further incubated overnight in antibody solution (Millipore Sigma, Cat. No. AB3201, 1:300 rabbit anti-GluTub; Sigma, Cat No. T6793, 1:500 mouse anti-acetylated tubulin) in blocking buffer at 4 °C, on a rotator. The next morning, larval fish were transferred into 6-well plates and washed 4×15 min in 1×PBST at room temperature, with rocking. This was followed by incubation in secondary antibody (goat anti-rabbit Cy5, Abcam, Cat. No. ab97077; goat anti-mouse Cy3, Abcam, Cat. No. ab97035) and 1:10,000 Hoechst 33342 (ThermoFisher Scientific, Cat. No. 62249, 20 mM solution) in blocking buffer for 1 hr at room temperature, with rocking. Fish were covered to avoid bleaching. […]
Fluorescence intensities were measured using the Imaris MATLAB plugin or Fiji. A line was typically placed over the region of interest and the fluorescence automatically quantified. The values were normalized to nuclear (Hoechst33342) fluorescence intensities within the same fish and region to obtain an intensity ratio.
Stabilized microtubules undergo a modification whereby the terminal tyrosine residue was removed, leading to detyrosination (dMT) (Roll-Mecak et al., 2020, Developmental cell 54: 7-20), which was associated with particularly long-term stabilized microtubule populations (Khawaja et al., 1988, The Journal of cell biology 106: 141-149). Exposure of the penultimate glutamate residue can be detected using a GluTub antibody. […]

A further test relates to suprabasal keratinocytes. Nature of the test: dfMT formation in mouse epidermis. The note with it: single injection 20 mg/kg. Here is the method:
The mice in each cage were randomly allocated to different treatment groups. Food and water were available ad libitum and experiments were performed during the light cycle (7:00 am to 7:00 pm). Animals were euthanized via CO2 asphyxiation, followed by cervical dislocation. […] The animal's husbandry conformed with established NIH and Institutional Animal Care and Use Committee (IACUC) approved protocols.
Paws and back skin were collected at predetermined time points, placed in 10% formalin, and stored overnight at 4 °C. Samples were embedded in paraffin and sectioned at 7 μm, deparaffinized, washed with PBS, and incubated at room temperature for 5 min in 0.1% Triton X-100 in PBS and then blocked for 30 min (5% BSA). Sections were incubated with primary antibody diluted in blocking solution, overnight at 4 °C in a humidity chamber. Following PBS washes, sections were incubated for 1 h at room temperature with a secondary antibody. Tissues were mounted and assessed for staining. Antibodies used were against detyrosinated tubulin Millipore AB3201, p-KIF11 Invitrogen PA5-38647, alpha-tubulin Proteintech 66031-1-Ig, mouse Alexa Fluor 488 Invitrogen A21202, and rabbit Alexa flour 546 Invitrogen A10040. DAPI was used for nuclei counterstaining. […]

The subject of a further test is skin gene expression. Briefly: Mouse skin RNAseq. The note with it: mice, 2 mg/kg paclitaxel i.p. x4. The protocol: The RNAseq data set was published in Cirrincione et al. (2022, Data 7: 72). Following differential gene expression analysis (FDR<0.01) comparing paclitaxel-treated to vehicle control animals (n=4), identified genes were queried in gProfiler and grouped by their molecular function. Using normalized gene counts, Kif genes were analyzed for their expression and plotted over time. […] Kif11 was queried in STRING to identify associated networks and interacting proteins compared to the RNAseq data set and differentially expressed genes were graphed in Prism 9.
Molecular mechanisms underlying paclitaxel-induced microtubule fasciculation were then investigated. […] Peripheral neuropathy was correlated with these times points using von Frey behavioral testing, which determined that peak neuropathy was present at day 7 (D7). This identified several biological categories during peak neuropathy with the largest clusters being implicated in extracellular matrix organization (e.g. “ECM”, “collagen-containing ECM”, “collagen trimer”) and cell cycle regulation (e.g. “outer kinetochore”, “kinesin complex”, condensed chromosome, centromeric region”, “mitotic spindle”, “microtubules”), consistent with our findings in zebrafish. Interactome analysis using STRING (Szklarczyk et al., 2021, Nucl. Acids Res 49: D605-D612) to predict protein association networks further identified major clusters involved in cell cycle regulation, which contained various kinesins, microtubule and nucleus regulators, as well as one cluster annotated as “disulfide bond”, consistent with a role for oxidative signal activation (Leonard et al., 2011, Current opinion in chemical biology 15: 88-102) (shown in FIG. 3D).

Consider two molecules from patent US20260345584A1, “METHODS AND PHARMACEUTICAL COMPOSITIONS FOR TREATING CHEMOTHERAPY-INDUCED PERIPHERAL NEUROPATHY WITH EG5 INHIBITORS” (UNIVERSITY OF MIAMI, priority 2023, published 2026).

On to `CN(C)CCNC(=O)NC[C@H]1CC[C@@H]2[C@H](O1)c1cc(C(F)(F)F)ccc1N[C@H]2c1ccccc1` [EMD534085], for which the “microtubule detyrosination with Eg5 inhibition” value in test [1] (EMD534085-treated animals, 96 hr) was “not modified when animals were treated with EMD534085”. In test [1] (EMD534085 co-administered with 100 nM and 22 μM paclitaxel), the “effect on microtubule fasciculation and detyrosination” value is reported as “rescued microtubule fasciculation but not detyrosination”.

As to `CC(=O)O[C@H]1C(=O)[C@@]2(C)[C@H]([C@H](OC(=O)c3ccccc3)[C@]3(O)C[C@H](OC(=O)[C@H](O)[C@@H](NC(=O)c4ccccc4)c4ccccc4)C(C)=C1C3(C)C)[C@]1(OC(C)=O)CO[C@@H]1C[C@@H]2O` [paclitaxel], the “dfMT formation in mouse epidermis” value in the test with suprabasal keratinocytes was “resulted in dfMT formation in a subset of suprabasal keratinocytes”. Besides, in the test with skin gene expression, the “expression of Cdk1, Aurka, Aurkb and Kif11” value is recorded as “upregulated during peak neuropathy”; the “expression of Cyba and Cybb” value is recorded as “upregulated at D23”; the “expression of checkpoint regulators Plk1, Cdc20, Ndc80, Bub1c, Dlgap5” value was “co-upregulation from D7 onward”.
